Reference: US6949566B2, “Thiazole and oxazole derivatives” (Shionogi & Co. Ltd., priority 2000, dated 2005)

Legend:
Assay type in all cases: biochemical
MMP-9 = target: T1, MMP-9 (Homo sapiens, UniProt P14780); assay: Assay for inhibitory activities on MMPs (fluorogenic peptide substrate), MMP-9; settings: MMP-9 from HT1080 cells, activated by TPCK-Trypsin; substrate MOCAc-Pro-Leu-Gly-Leu-A2Pr(DNP)-Ala-Arg-NH2
T1 construct: endogenous in cells; host or cells: HT1080 human fibrosarcoma cells, TPA-stimulated; enzyme purified from conditioned medium
T1 sequence (P14780 107-707 limits assumed): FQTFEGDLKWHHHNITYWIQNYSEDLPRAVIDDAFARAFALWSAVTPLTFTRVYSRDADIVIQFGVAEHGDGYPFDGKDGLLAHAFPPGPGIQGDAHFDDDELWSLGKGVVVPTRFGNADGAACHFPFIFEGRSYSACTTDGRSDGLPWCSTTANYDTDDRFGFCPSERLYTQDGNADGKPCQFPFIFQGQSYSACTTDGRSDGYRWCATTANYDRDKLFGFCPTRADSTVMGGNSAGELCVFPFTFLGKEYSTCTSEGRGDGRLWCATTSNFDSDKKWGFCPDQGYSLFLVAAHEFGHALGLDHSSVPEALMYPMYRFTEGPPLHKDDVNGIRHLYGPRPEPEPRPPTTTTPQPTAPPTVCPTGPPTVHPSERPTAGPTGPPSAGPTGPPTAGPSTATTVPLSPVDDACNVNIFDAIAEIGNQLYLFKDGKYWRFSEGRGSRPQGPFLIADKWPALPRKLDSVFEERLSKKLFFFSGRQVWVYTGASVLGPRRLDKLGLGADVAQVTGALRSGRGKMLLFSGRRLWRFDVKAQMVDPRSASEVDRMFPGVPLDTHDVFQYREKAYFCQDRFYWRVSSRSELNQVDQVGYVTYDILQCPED
Excerpt: MMP-9 was isolated and purified by procedures described in as follows: Yasunori Okada, Yukio Gonoji, Katsumi Naka, Katsuro Tomita, Isao Nakanishi, Kazushi Iwata, Kyoko Yamashita, and Taro Hayakawa: Matrix metalloproteinase 9 (92-kDa gelatinase/type IV collagenase) from HT1080 human fibrosarcoma cells. Purification and activation of the precursor and enzymic properties J. Biol. Chem., 1992, 267 21712-21719, in combination with others: 1)Yasunori Okada, Tatsuhisa Morodomi, Jan J, Enghild, ko Suzuki, Atsushi Yasui, Isao Nakanishi, Guy Salvesen and Hideaki Nagase: Matrix metalloproteinase 2 from human rheumatoid synovial fibroblasts. Purification and activation of the precursor and enzymic properties. Eur. J. Biochem. 1990, 194 721-730; 2)Robin V Ward, Rosalind M Hembry, John J Reynolds and Gillian Murphy: The purification of tissue inhibitor of metalloproteinase-2 from its 72 kDa progelatinase complex. Biochem. J. 1991 278 179-187. In detail, human fibrosarcoma ATCC HT1080 cell line was cultured to confluent in Dulbecco's Modified Medium (DMEM) containing 10% fetal-calf serum at 37° C. for 48 hours. Subsequently, the medium of confluent culture was changed to serum-free DMEM medium. To obtain MMP-9, Phorbol-12-myristate-13-acetate (TPA) must be added to this serum-free DMEM medium at a concentration of 50 ng/ml. The TPA treated medium was centrifuged at 3000 rpm for 15 min and the supernatant was concentrated to 450 ml by a Toyo-Roshi UP-20 apparatus with an ultrafiltration membrane. Then, proMMP-9 in this concentrated solution was purified by using columns of Gelatin-Sepharose and Concanavalin A-Sepharose. The pool containing proMMP-9 was dialyzed, concentrated (Toyo-Roshi UP-20) and applied to columns of Sephacryl S-200 and Green A matrix for the separation from TIMPs. The obtained proMMP-9 fraction was activated by TPCK-Trypsin (Final conc. 3 μg/501 μl React Mix.).
(§1) The enzymatic activity on MMPs was analyzed by the method described in “C. Graham Knight, Frances Willenbrock and Gillian Murphy: A novel coumarin-labelled peptide for sensitive continuous assays of the matrix metalloproteinases: FEBS LETT., 296, (1992), 263-266”. The substrate MOCAc-Pro-Leu-Gly-Leu-A2Pr(DNP)-Ala-Arg-NH2 was purchased from Peptide Institute, Inc., Osaka, Japan. The measurement of the inhibitory activities (IC50) was carried out by the following four methods;
(§2) (A) Reaction with substrate, enzyme (MMPs) and inhibitor
(§3) (B) Reaction with substrate and inhibitor, without enzyme
(§4) (C) Reaction with substrate and enzyme (MMPs), without inhibitor
(§5) (D) Reaction with substrate only
(§6) IC50 values were calculated by using the following formula and each fluorescence values of above four methods (A to D). % inhibition={1−(A−B)/(C−D)}×100 IC50 means the concentration required to inhibit 50% of the enzyme activity.

MMP-12 = target: T2, MMP-12 (Homo sapiens, UniProt P39900); assay: Assay for inhibitory activities on MMPs (fluorogenic peptide substrate), MMP-12; settings: catalytic domain 100Phe-263Gly; substrate MOCAc-Pro-Leu-Gly-Leu-A2Pr(DNP)-Ala-Arg-NH2
T2 construct: catalytic domain(^100Phe˜^263Gly) was amplified with RT-PCR; His-tag; enterokinase digestion-site; made in house; host or cells: Escherichia coli
T2 sequence (P39900 100-263): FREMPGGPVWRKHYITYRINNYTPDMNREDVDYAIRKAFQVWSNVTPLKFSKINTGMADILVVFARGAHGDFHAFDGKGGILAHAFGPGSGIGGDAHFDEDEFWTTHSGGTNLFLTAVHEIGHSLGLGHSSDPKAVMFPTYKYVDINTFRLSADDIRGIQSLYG
Method: (§7) In regard to MMP-12, catalytic domain(^100Phe˜^263Gly) was amplified with RT-PCR from Human Placenta Total RNA. This was cloned in Escherichia. coli expression vector pTrc99AHE inserted with His-tag sequence and enterokinase digestion-site, induced and expressed by IPTG (Isopropyl-β-D-thiogalactopyranoside) and expressed in a insoluble fraction. Isolation of MMP-12 from an insoluble fraction was carried out by dissolving in modifier (6M urea) by a usual method and purification with metal chelate chromatography (Ni Chelateing Sepharose). And then removing modifier (6M urea) with dialysis and refolding of the enzyme spontaneously gave activated MMP-12.
as §1, §2, §3, §4, §5, §6

MMP-8 = target: T3, MMP-8 (Homo sapiens, UniProt P22894); assay: Assay for inhibitory activities on MMPs (fluorogenic peptide substrate), MMP-8; settings: catalytic domain 99Phe-262Gly; substrate MOCAc-Pro-Leu-Gly-Leu-A2Pr(DNP)-Ala-Arg-NH2
T3 construct: catalytic domain (^99Phe˜^262Gly) was amplified with PCR; His-tag; enterokinase digestion-site; made in house; host or cells: Escherichia coli
T3 sequence (P22894 99-262): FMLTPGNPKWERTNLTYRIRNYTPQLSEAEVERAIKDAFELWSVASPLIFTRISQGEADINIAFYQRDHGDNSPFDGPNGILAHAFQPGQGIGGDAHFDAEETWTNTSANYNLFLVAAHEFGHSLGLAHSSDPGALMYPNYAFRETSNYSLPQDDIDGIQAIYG
Excerpt: In regard to MMP-8, catalytic domain (^99Phe˜^262Gly) was amplified with PCR using commercial available Human Bone Marrow cDNA. This was cloned in Escherichia. coli expression vector pTrc99AHE inserted with His-tag sequence and enterokinase digestion-site, induced and expressed by IPTG (Isopropyl-β-D-thiogalactopyranoside) and expressed in a insoluble fraction (Thau F. Ho, M. Walid Qoronfleh, Robert C. Wahl, Trica A. Pulvino, Karen J. Vavra, Joe Falvo, Tracey M. Banks, Patricia G. Brake and Richard B. Ciccarelli: Gene expression, purification and characterization of recombinant human neutrophil collagenase. Gene 146, (1994) 297-301, Prepared by the a improved method of this material). Isolation of MMP-8 from an insoluble fraction was carried out by dissolving in modifier (6M urea) by a usual method and purification with metal chelate chromatography. And then removing modifier (6M urea) with dialysis and refolding of the enzyme spontaneously gave activated MMP-8.
as §1, §2, §3, §4, §5, §6

MMP-2 = target: T4, MMP-2 (Homo sapiens, UniProt P08253); assay: Assay for inhibitory activities on MMPs (fluorogenic peptide substrate), MMP-2; settings: purchased MMP-2; substrate MOCAc-Pro-Leu-Gly-Leu-A2Pr(DNP)-Ala-Arg-NH2
T4 construct: purchased Calbiochem-Novabiochem International, Inc
T4 sequence (P08253 110-660): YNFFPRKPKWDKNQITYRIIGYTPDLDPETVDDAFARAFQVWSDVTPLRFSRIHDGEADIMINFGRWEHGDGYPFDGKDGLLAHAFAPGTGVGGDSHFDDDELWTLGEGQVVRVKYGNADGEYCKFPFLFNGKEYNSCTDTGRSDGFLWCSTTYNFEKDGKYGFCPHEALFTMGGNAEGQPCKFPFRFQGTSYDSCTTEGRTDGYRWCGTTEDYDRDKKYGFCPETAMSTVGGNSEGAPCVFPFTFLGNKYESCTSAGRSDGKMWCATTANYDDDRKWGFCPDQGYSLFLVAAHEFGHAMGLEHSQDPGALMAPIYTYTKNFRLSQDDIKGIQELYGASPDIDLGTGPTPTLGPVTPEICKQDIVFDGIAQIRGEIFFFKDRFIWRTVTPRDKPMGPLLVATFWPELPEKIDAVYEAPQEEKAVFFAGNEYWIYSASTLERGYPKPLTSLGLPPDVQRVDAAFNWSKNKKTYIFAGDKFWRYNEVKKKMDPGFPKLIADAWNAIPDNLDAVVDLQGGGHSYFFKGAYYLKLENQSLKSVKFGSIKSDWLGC
Method: MMP-2 was purchased from Calbiochem-Novabiochem International, Inc.
as §1, §2, §3, §4, §5, §6

MMP-13 = target: T5, MMP-13 (Homo sapiens, UniProt P45452); assay: Assay for inhibitory activities on MMPs (fluorogenic peptide substrate), MMP-13; settings: catalytic domain 104Tyr-267Gly; substrate MOCAc-Pro-Leu-Gly-Leu-A2Pr(DNP)-Ala-Arg-NH2
T5 construct: catalytic domain (^104Tyr˜^267Gly) was amplified with RT-PCR; His-tag; enterokinase digestion-site; made in house; host or cells: Escherichia coli
Method: as §7, with “MMP-13, mRNA was prepared from carcinoma cell SW1353 derived from human cartilage stimulate by IL-1, TNF and” for “MMP-12,”, “domain (^104Tyr˜^267Gly)” for “domain(^100Phe˜^263Gly)”, “RT-PCR.” for “RT-PCR from Human Placenta Total RNA.”, “MMP-13” for “MMP-12”, “dialyze” for “dialysis”, “MMP-13.” for “MMP-12.”
as §1, §2, §3, §4, §5, §6

| Structure (SMILES) | IC50 (MMP-9) | IC50 (MMP-12) | IC50 (MMP-8) | IC50 (MMP-2) | IC50 (MMP-13) |
| --- | --- | --- | --- | --- | --- |
| CC(C)[C@@H](NS(=O)(=O)c1ccc(-c2ncc(-c3ccc4ccccc4c3)o2)cc1)C(=O)O [Compound A-50] | 88.6 nM | 0.699 nM | 146 nM | 4.86 nM | 11.9 nM |
| COc1ccc(-c2cnc(-c3ccc(S(=O)(=O)N[C@H](C)C(=O)O)cc3)o2)cc1 [Compound A-8] | 218 nM | 2.78 nM | 25.2 nM | 3.37 nM | 22.6 nM |
| COc1ccc(-c2cnc(-c3ccc(S(=O)(=O)N[C@H](Cc4ccccc4)C(=O)O)cc3)o2)cc1 [Compound A-14] | 174 nM | 1.88 nM | 7.07 nM | 2.66 nM | 5.51 nM |
| CC(C)[C@H](NS(=O)(=O)c1ccc(-c2ncc(-c3ccc(F)cc3)o2)cc1)C(=O)O [Compound A-26] | 1810 nM | 40.2 nM | 569 nM | 514 nM |  |
| C[C@@H](NS(=O)(=O)c1ccc(-c2ncc(-c3ccc(F)cc3)o2)cc1)C(=O)O [Compound A-6] | 368 nM | 12.5 nM | 233 nM | 9.71 nM | 234 nM |
| CC(C)[C@@H](NS(=O)(=O)c1ccc(-c2ncc(-c3ccc(Br)cc3)o2)cc1)C(=O)O [Compound A-27] | 67.9 nM | 1.55 nM | 57.3 nM | 6.08 nM | 54.5 nM |
| CSCC[C@@H](NS(=O)(=O)c1ccc(-c2ncc(-c3ccc(Cl)cc3)o2)cc1)C(=O)O [Compound A-36] | 226 nM | 2.98 nM | 127 nM | 16.3 nM | 140 nM |
| CC(C)[C@H](NS(=O)(=O)c1ccc(-c2ncc(-c3ccccc3)o2)cc1)C(=O)O [Compound A-22] | 144 nM | 2.69 nM | 53.3 nM | 7.84 nM | 5.31 nM |
| C[C@@H](NS(=O)(=O)c1ccc(-c2ncc(-c3ccc4ccccc4c3)o2)cc1)C(=O)O [Compound A-46] | 157 nM | 2.25 nM | 279 nM | 7.16 nM | 19 nM |
| C[C@H](NS(=O)(=O)c1ccc(-c2ncc(-c3ccc(Cl)cc3)o2)cc1)C(=O)O [Compound A-5] |  | 28.4 nM |  |  |  |
| O=C(O)[C@H](Cc1ccccc1)NS(=O)(=O)c1ccc(-c2ncc(-c3ccc(Cl)cc3)o2)cc1 [Compound A-16] | 758 nM | 26.2 nM |  | 265 nM | 774 nM |

Continued, values first:

| IC50 (MMP-9) | IC50 (MMP-12) | IC50 (MMP-8) | IC50 (MMP-2) | IC50 (MMP-13) | Structure (SMILES) |
| --- | --- | --- | --- | --- | --- |
| 10 nM | 0.37 nM | 6.47 nM | 0.347 nM | 1.16 nM | COc1ccc(-c2cnc(-c3ccc(S(=O)(=O)N[C@@H](C(=O)O)C(C)C)cc3)s2)cc1 [Compound B-6] |
| 66.9 nM | 3.69 nM | 25.9 nM | 1.44 nM | 9.3 nM | O=C(O)[C@H](Cc1ccccc1)NS(=O)(=O)c1ccc(-c2ncc(-c3ccccc3)s2)cc1 [Compound B-12] |
| 26.3 nM | 2.66 nM | 29 nM | 2.15 nM | 17.5 nM | CSCC[C@@H](NS(=O)(=O)c1ccc(-c2ncc(-c3ccccc3)s2)cc1)C(=O)O [Compound B-45] |
| 5.82 nM | 0.47 nM | 45.2 nM | 0.313 nM | 2.6 nM | C[C@@H](NS(=O)(=O)c1ccc(-c2ncc(-c3ccc(Br)cc3)s2)cc1)C(=O)O [Compound B-29] |
| 16.2 nM | 2.4 nM | 26.1 nM | 1.08 nM | 6.34 nM | O=C(O)[C@@H](Cc1ccccc1)NS(=O)(=O)c1ccc(-c2ncc(-c3ccccc3)s2)cc1 [Compound B-11] |
| 34.7 nM | 5.55 nM | 453 nM | 2.5 nM | 29.5 nM | O=C(O)CNS(=O)(=O)c1ccc(-c2ncc(-c3ccc(Cl)cc3)s2)cc1 [Compound B-52] |
| 35.7 nM | 4.55 nM | 144 nM | 3.57 nM | 32.6 nM | CC(C)C[C@@H](NS(=O)(=O)c1ccc(-c2ncc(-c3ccc(Cl)cc3)s2)cc1)C(=O)O [Compound B-31] |
| 55 nM | 1.33 nM | 12.5 nM | 8.05 nM | 13.1 nM | CC(C)[C@H](NS(=O)(=O)c1ccc(-c2ncc(-c3ccc(F)cc3)s2)cc1)C(=O)O [Compound B-9] |
| 109 nM | 1.5 nM | 18.5 nM | 6.3 nM | 8.4 nM | COc1ccc(-c2cnc(-c3ccc(S(=O)(=O)N[C@@H](C)C(=O)O)cc3)s2)cc1 [Compound B-24] |
